From PubChem BioAssay AID1259246 (Broad Institute, 2017)
Results filed as inconclusive are left out. Activity calls are given as the source filed them.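 How the source made its calls: active means valid dose-response fit whose half-maximal growth-inhibiting concentration is at or below a set limit above the top tested dose; inconclusive means flat fit with effect between 30 and 70%, or poor fit; inactive means half-maximal concentration above a set limit.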

Experiment: antibacterial activity against Clostridioides difficile – 10-point retest, dose response (AID 1259246)
Conditions: Clostridioides difficile clinical isolate growth, OD600, 24 h

SMILES	activity change, negative = inhibition (at 120 µM (top of the series))	further results
CO[C@H]1CN(C)C(=O)c2cc(NC(=O)c3ccccc3)ccc2OC[C@H](C)NC[C@H]1C	–	activity change, negative = inhibition (at 135 µM (top of the series)): -3.19% (inactive)
CCCNC(=O)C[C@@H]1CC[C@H]2[C@H](COc3ccc(NC(=O)c4cccc(Cl)c4)cc3C(=O)N2C)O1	–	activity change, negative = inhibition (at 60 µM (top of the series)): 10.3% (inactive)
COc1ccc(S(=O)(=O)N(C)C[C@H]2Oc3ccc(NC(=O)C4CC4)cc3CC(=O)N([C@H](C)CO)C[C@H]2C)cc1	–	activity change, negative = inhibition (at 135 µM (top of the series)): -2.76% (inactive)
CC1=CC2(CO)C(=O)[C@]3(CO3)[C@H]1[C@H]1[C@]2(C)C=C(CO)C(=O)[C@]12CO2	10.8% (inactive)	–
C[C@H](CO)N1C[C@H](C)[C@@H](CN(C)S(=O)(=O)c2cn(C)cn2)OCCCC[C@H](C)Oc2ccc(NC(=O)Nc3cccc4ccccc34)cc2C1=O	–	activity change, negative = inhibition (at 60 µM (top of the series)): 4.46% (inactive)
Cc1noc(C)c1NC(=O)Nc1cccc2c1O[C@H](CN(C)Cc1ccc(Cl)c(Cl)c1)[C@H](C)CN([C@@H](C)CO)C2=O	28.7% (inactive)	–
C/C=C/c1ccc2c(c1)O[C@@H](CN(C)Cc1ccc(C(=O)O)cc1)[C@H](C)CN([C@H](C)CO)S2(=O)=O	–	activity change, negative = inhibition (at 60 µM (top of the series)): 8.2% (inactive)
C[C@@H]1CN([C@@H](C)CO)C(=O)c2cccc(NC(=O)Nc3ccc(C(F)(F)F)cc3)c2O[C@H]1CN(C)C(=O)NC1CCCCC1	15.3% (inactive)	–
C[C@@H]1CN([C@H](C)CO)S(=O)(=O)c2ccc(/C=C/c3ccccc3)cc2O[C@H]1CN(C)C	–	activity change, negative = inhibition (at 60 µM (top of the series)): 5.46% (inactive)
C/C=C/c1ccc2c(c1)O[C@@H](CN(C)Cc1ccc(C(=O)O)cc1)[C@H](C)CN([C@@H](C)CO)S2(=O)=O	-3.63% (inactive)	–
COc1ccc(C(=O)Nc2ccc3c(c2)C(=O)N(C)C[C@H](OC)[C@H](C)CN[C@@H](C)CO3)cc1	8.1% (inactive)	–
COc1ccc(NC(=O)Nc2cccc3c2O[C@@H](CN(C)C(=O)NC2CCCCC2)[C@H](C)CN([C@H](C)CO)C3=O)cc1	1.64% (inactive)	–
Cc1ccc(S(=O)(=O)N[C@H]2CC[C@H](CCNS(=O)(=O)Cc3ccccc3)O[C@@H]2CO)cc1	–	activity change, negative = inhibition (at 135 µM (top of the series)): -4.21% (inactive)
C[C@@H]1CN([C@@H](C)CO)C(=O)Cc2cc(N(C)C)ccc2O[C@@H]1CN(C)Cc1ccc(Oc2ccccc2)cc1	12.4% (inactive)	–
C[C@@H]1CCCCO[C@H](CN(C)S(=O)(=O)c2ccc(F)cc2)[C@H](C)CN([C@@H](C)CO)C(=O)c2cc(NC(=O)Nc3cccc4ccccc34)ccc2O1	22.9% (inactive)	–
C[C@H](CO)N1C[C@H](C)[C@H](CN(C)Cc2ccc(-c3ccccc3)cc2)Oc2ccc(NC(=O)CCCN(C)C)cc2CC1=O	37.3% (inactive)	–
O=S(=O)(Cc1ccccc1)NCC[C@H]1CC[C@H](NS(=O)(=O)c2ccccc2)[C@H](CO)O1	-7.57% (inactive)	–
C[C@@H]1CN([C@H](C)CO)C(=O)Cc2cc(NC(=O)CCCN(C)C)ccc2O[C@@H]1CN(C)Cc1ccc(Oc2ccccc2)cc1	22.2% (inactive)	–
COc1ccc(CNC(=O)C[C@H]2C[C@@H]3c4cc(NC(=O)C5CCC5)ccc4O[C@@H]3[C@@H](CO)O2)cc1	–	activity change, negative = inhibition (at 60 µM (top of the series)): -1.06% (inactive)
C[C@@H]1CN([C@@H](C)CO)S(=O)(=O)c2ccc(Br)cc2O[C@H]1CN(C)Cc1cccnc1	2.31% (inactive)	–
COc1ccc(CN2C[C@@H](C)[C@H](OC)CN(C)C(=O)c3ccc(NC(=O)c4nc5ccccc5s4)cc3OC[C@H]2C)cc1	22.7% (inactive)	–
CC(C)CC#Cc1ccc2c(c1)O[C@H](CN(C)CC1CCOCC1)[C@H](C)CN([C@@H](C)CO)S2(=O)=O	15.6% (inactive)	–
C[C@H](CO)N1C[C@H](C)[C@@H](CN(C)Cc2ccc(-c3ccccc3)cc2)Oc2c(NC(=O)Nc3ccc4c(c3)OCO4)cccc2C1=O	2.74% (inactive)	–
CCCC#Cc1ccc2c(c1)O[C@H](CN(C)Cc1ccc3c(c1)OCO3)[C@H](C)CN([C@@H](C)CO)S2(=O)=O	25.5% (inactive)	–
O=C(N[C@H]1CC[C@H](CCNS(=O)(=O)Cc2ccccc2)O[C@H]1CO)c1ccccc1F	–	activity change, negative = inhibition (at 135 µM (top of the series)): -3.44% (inactive)
C[C@@H]1CN([C@H](C)CO)C(=O)Cc2cc(NC(=O)CCCN(C)C)ccc2O[C@H]1CN(C)Cc1ccc(Oc2ccccc2)cc1	17.1% (inactive)	–
COCC#Cc1ccc2c(c1)O[C@H](CN(C)Cc1ccc3c(c1)OCO3)[C@H](C)CN([C@H](C)CO)S2(=O)=O	–	activity change, negative = inhibition (at 60 µM (top of the series)): 10.3% (inactive)
CNC[C@H]1Oc2c(NC(=O)Nc3ccc4c(c3)OCO4)cccc2C(=O)N([C@@H](C)CO)C[C@H]1C	4.27% (inactive)	–
C[C@@H]1CN([C@H](C)CO)C(=O)c2cc(NC(=O)Nc3cccc4ccccc34)ccc2O[C@@H](C)CCCCO[C@H]1CN(C)S(=O)(=O)c1ccccc1	9.12% (inactive)	–
O=C(C[C@@H]1C[C@H]2c3cc(NC(=O)Nc4ccc(F)cc4)ccc3O[C@H]2[C@H](CO)O1)NC1CCCCC1	–	activity change, negative = inhibition (at 60 µM (top of the series)): 6.83% (inactive)
